Source: patent US8242150B2, “Triazole derivatives for treating alzheimer'S disease and related conditions” (Merck Sharp & Dohme Corp., priority 2007, dated 2012)
pIC50: −log10 of the molar value. Where “and” joins values, the source holds several entries; their conditions need not be identical. Identical values can stand only once. Counter-ions that a name gives are not always drawn.

These molecules were tested on Aβ(1-42) (assay: Cell-based γ-secretase assay, Aβ(42) detection). Details: Homo sapiens, SH-SY5Y, SH-SY5Y cells overexpressing SPA4CT; two values in a cell = individual enantiomers; read-out: Aβ42 IC50.
Design: species or system Human
Description: Cell-Based γ-Secretase Assay
Human SH-SY5Y neuroblastoma cells overexpressing the direct γ-secretase substrate SPA4CT were induced with sodium butyrate (10 mM) for 4 hours prior to plating. Cells were plated at 35,000 cells/well/100 μl in 96-well plates in phenol red-free MEM/10% FBS, 50 mM HEPES, 1% Glutamine and incubated for 2 hrs at 37° C., 5% CO2.
Compounds for testing were diluted into Me2SO to give a ten point dose-response curve. Typically 10 μl of these diluted compounds in Me2SO were further diluted into 182 μl dilution buffer (phenol red-free MEM/10% FBS, 50 mM HEPES, 1% Glutamine) and 10 μl of each dilution was added to the cells in 96-well plates (yielding a final Me2SO concentration of 0.5%). Appropriate vehicle and inhibitor controls were used to determine the window of the assay.
After incubation overnight at 37° C., 5% CO2, 25 μl and 50 μl media were transferred into a standard Meso avidin-coated 96-well plate for detection of Aβ(40) and Aβ(42) peptides, respectively. 25 μl Meso Assay buffer (PBS, 2% BSA, 0.2% Tween-20) was added to the Aβ(40) wells followed by the addition of 25 μl of the respective antibody premixes to the wells:
Aβ(42) premix: 1 μg/ml ruthenylated G2-11 antibody, 4 μg/ml; and biotinylated 4G8 antibody diluted in Origen buffer
(Biotinylated 4G8 antibody supplied by Signet Pathology Ltd; G2-10 and G2-11 antibodies supplied by Chemicon)
After overnight incubation of the assay plates on a shaker at 4° C., the Meso Scale Sector 6000 Imager was calibrated according to the manufacturer's instructions. After washing the plates 3 times with 150 μl of PBS per well, 150 μl Meso Scale Discovery read buffer was added to each well and the plates were read on the Sector 6000 Imager according to the manufacturer's instructions.
LD50 and IC50 values for inhibition of Aβ(40) and Aβ(42) were calculated by nonlinear regression fit analysis using the appropriate software (eg. Excel fit). The total signal and the background were defined by the corresponding Me2SO and inhibitor controls.
`COc1cc(-c2cn(CC(=O)N3CCCC4CCCCC43)nn2)ccc1-n1cnc(C)c1` (stereo not shown) [Example 8, 2-{4-[3-Methoxy-4-(4-methyl-imidazol-1-yl)-phenyl]-[1,2,3]triazol-1-yl}-1-(octahydro-quinolin-1-yl)-ethanone trifluoroacetate salt] showed a pIC50 of 5.97.
`COc1cc(-c2cn(CC(=O)N(c3ccccc3)C3CCCCC3)nn2)ccc1-n1cnc(C)c1` [Example 1, N-cyclohexyl-2-{4-[3-methoxy-4-(4-methyl-imidazol-1-yl)-phenyl]-1,2,3-triazol-1-yl}-N-phenyl-acetamide] showed a pIC50 of 6.21.
Molecule `COc1cc(-c2cn(C(F)(F)c3ccc(C(F)F)cc3)nn2)ccc1-n1cnc(C)c1` [Example 7, 1-[(4-Difluoromethyl-phenyl)-difluoro-methyl]-4-[3-methoxy-4-(4-methyl-imidazol-1-yl)-phenyl]-1H-[1,2,3]triazole trifluoracetate salt] has a pIC50 of 5.65.
Work on `COc1cc(-c2cn(CC(=O)N(CC(F)(F)F)c3ccc(F)c(Cl)c3)nn2)ccc1-n1cnc(C)c1` [Example 12, N-(3-chloro-4-fluorophenyl)-2-{4-[3-methoxy-4-(4-methyl-1H-imidazol-1-yl)phenyl]-1H-1,2,3-triazol-1-yl}-N-(2,2,2-trifluoroethyl)acetamide trifluoroacetate salt] yielded a pIC50 of 7.08.
Molecule `COc1cc(-c2cn(C(C)c3ccccc3)nn2)ccc1-n1cnc(C)c1` (stereo not shown) [Example 5, 4-[3-Methoxy-4-(4-methyl-imidazol-1-yl)-phenyl]-1-(1-phenyl-ethyl)-1H-[1,2,3]triazole trifluoroacetate salt] has a pIC50 of 5.57.
`COc1cc(-c2cn(C(F)(F)C(=O)NCc3ccc(F)cc3)nn2)ccc1-n1cnc(C)c1` [Example 9, 2,2-Difluoro-N-(4-fluoro-benzyl)-2-{4-[3-methoxy-4-(4-methyl-imidazol-1-yl)-phenyl]-[1,2,3]triazol-1-yl}-acetamide trifluoroacetate salt] showed a pIC50 of 6.03.
Molecule `COc1cc(-c2cn(CSc3ccccc3)nn2)ccc1-n1cnc(C)c1` [Example 4, 4-[3-Methoxy-4-(4-methyl-imidazol-1-yl)-phenyl]-1-phenylsulfanylmethyl-1H-[1,2,3]triazole trifluoroacetate salt] has a pIC50 of 6.28.

Same assay, conditions: Homo sapiens, SH-SY5Y, read-out: Aβ42 IC50
`COc1cc(-c2cn(Cc3ccc(-c4nc5ccccc5o4)cc3)nn2)ccc1-n1cnc(C)c1` [Example 6, 2-(4-{4-[3-Methoxy-4-(4-methyl-imidazol-1-yl)-phenyl]-[1,2,3]triazol-1-ylmethyl}-phenyl)-benzooxazole trifluoroacetate salt] was tested, and the pIC50 was 6.75.
`COc1cc(-c2cn(Cc3ccc(C(C)(C)C)cc3)nn2)ccc1-n1cnc(C)c1` [Example 3, 1-(4-tert-butyl-benzyl)-4-[3-methoxy-4-(4-methyl-imidazole-1-yl)-phenyl]-1H-[1,2,3]triazole trifluoroacetate salt] was tested, and the pIC50 was 6.51.

Same assay, conditions: SH-SY5Y cells overexpressing SPA4CT; two values in a cell = individual enantiomers; read-out: Aβ42 IC50
In the case of `COc1cc(-c2cn(C3CCc4ccccc4NC3=O)nn2)ccc1-n1cnc(C)c1` (racemic) [Example 2, (R) and (S)-3-{4-[3-methoxy-4-(4-methyl-imidazol-1-yl)-phenyl]-1,2,3-triazol-1-yl}-1,3,4,5-tetrahydro-1-benzazepin-2-one], the pIC50 was 6.41 and 5.88.
